Data taken from patent US10653698B2, “Methods of improving myocardial performance in Fontan patients using udenafil compositions” (priority 2014, dated 2020).

Test system: adolescents with single ventricle physiology after Fontan palliation
Test: Vascular function testing (EndoPAT pulse amplitude tonometry, lnRHI and other EndoPAT indices)
Format: in vivo, human
Conditions: for Natural Log of Reactive Hyperemia Index, Baseline measurement: day 1; for Natural Log of Reactive Hyperemia Index, Follow-up measurement: post-medication, day 5
Text: Pulse amplitude tonometry (PAT), a FDA-approved method for assessing vascular function, is increasingly being used as an alternative measure of endothelium-dependent dilation in response to reactive hyperemia and flow-mediated dilation (FMD). The PAT device records digital pulse wave amplitude (PWA) using fingertip plethysmography. PWA can be measured continuously during three phases: a quiet baseline period, 5-min forearm occlusion, and reactive hyperemia following cuff release. Unlike FMD, PAT testing is not dependent upon a highly skilled technician and post-test analysis is largely automated. Most importantly, at least one longitudinal study has shown that PAT measures of endothelial function predict CVD events over a 6-year follow-up period. These significant advantages may make PAT testing suitable for clinical practice if prognostic significance and reliability can be verified.
The primary outcome of vascular function was determined according to an endothelial pulse amplitude tonometry (PAT) index as determined by the EndoPAT® device (Itamar Medical, Caesarea, Israel).
Table 16 summarizes the results for the key outcome from the vascular function testing—natural log of Reactive Hyperemia Index (lnRHI) by treatment group. Out of the 30 subjects enrolled in the treatment arms of the trial, 27 subjects had paired measurements with an acceptable quality (with QC score equal to 3 (the best) or 2). The structure of the table is similar to the one for exercise variables.
Table 17 reports change scores only for secondary EndoPAT outcomes (RHI, Framingham RHI etc; top panel) and other EndoPAT indices.

CCCOc1ccc(S(=O)(=O)NCCC2CCCN2C)cc1-c1nc2c(CCC)nn(C)c2c(=O)[nH]1 (stereo not drawn) [udenafil]
Natural Log of Reactive Hyperemia Index, Difference, FU − BL (37.5 mg daily): 0.03 ± 0.47 | AUC2max_o: Area under the curve to Max-Occlusion (ratio to baseline), FU − BL (37.5 mg daily, N 6): −0.23 ± 2.74 | AUC2max_oc: Area under the curve to Max-Occlusion/Control, FU − BL (37.5 mg daily, N 6): −0.93 ± 4.37 | AUCall_o: Area under the curve all-Occlusion (ratio to baseline), FU − BL (37.5 mg daily, N 6): −0.01 ± 2.73 | AUCall_oc: Area under the curve all-Occlusion/Control, FU − BL (37.5 mg daily, N 6): −1.34 ± 6.42 | Avg2Max_o: average upto max-Occlusion (ratio to baseline), FU − BL (37.5 mg daily, N 6): −0.12 ± 0.28 | Avg2Max_oc: average up to max-Occlusion/Control, FU − BL (37.5 mg daily, N 6): −0.35 ± 1.01 | Avgall_o: average all-Occlusion (ratio to baseline), FU − BL (37.5 mg daily, N 6): 0.02 ± 0.27 | Avgall_oc: average all -Occlusion/Control, FU − BL (37.5 mg daily, N 6): −0.10 ± 0.66 | Framingham RHI, FU − BL (37.5 mg daily, N 6): −0.00 ± 0.58 | Reactive Hyperemia Index, FU − BL (37.5 mg daily, N 6): 0.03 ± 0.84 | Natural Log of Reactive Hyperemia Index, Baseline measurement (37.5 mg daily): 0.48 ± 0.31 | Natural Log of Reactive Hyperemia Index, Follow-up measurement (37.5 mg daily): 0.51 ± 0.26 | Natural Log of Reactive Hyperemia Index, Difference, FU − BL (37.5 mg twice daily): −0.07 ± 0.17 | AUC2max_o: Area under the curve to Max-Occlusion (ratio to baseline), FU − BL (37.5 mg twice daily, N 6): 0.09 ± 1.45 | AUC2max_oc: Area under the curve to Max-Occlusion/Control, FU − BL (37.5 mg twice daily, N 6): −1.19 ± 1.84 | AUCall_o: Area under the curve all-Occlusion (ratio to baseline), FU − BL (37.5 mg twice daily, N 6): −0.69 ± 2.17 | AUCall_oc: Area under the curve all-Occlusion/Control, FU − BL (37.5 mg twice daily, N 6): −1.19 ± 2.00 | Avg2Max_o: average upto max-Occlusion (ratio to baseline), FU − BL (37.5 mg twice daily, N 6): 0.15 ± 0.19 | Avg2Max_oc: average up to max-Occlusion/Control, FU − BL (37.5 mg twice daily, N 6): −0.33 ± 0.26 | Avgall_o: average all-Occlusion (ratio to baseline), FU − BL (37.5 mg twice daily, N 6): −0.08 ± 0.24 | Avgall_oc: average all -Occlusion/Control, FU − BL (37.5 mg twice daily, N 6): −0.13 ± 0.22 | Framingham RHI, FU − BL (37.5 mg twice daily, N 6): −0.17 ± 0.19 | Reactive Hyperemia Index, FU − BL (37.5 mg twice daily, N 6): −0.12 ± 0.30 | Natural Log of Reactive Hyperemia Index, Baseline measurement (37.5 mg twice daily): 0.60 ± 0.30 | Natural Log of Reactive Hyperemia Index, Follow-up measurement (37.5 mg twice daily): 0.53 ± 0.29 | Natural Log of Reactive Hyperemia Index, Difference, FU − BL (87.5 mg daily): 0.07 ± 0.22 | AUC2max_o: Area under the curve to Max-Occlusion (ratio to baseline), FU − BL (87.5 mg daily, N 5): −1.26 ± 4.89 | AUC2max_oc: Area under the curve to Max-Occlusion/Control, FU − BL (87.5 mg daily, N 5): 3.03 ± 2.49 | AUCall_o: Area under the curve all-Occlusion (ratio to baseline), FU − BL (87.5 mg daily, N 5): 1.66 ± 5.96 | AUCall_oc: Area under the curve all-Occlusion/Control, FU − BL (87.5 mg daily, N 5): 1.88 ± 3.25 | Avg2Max_o: average upto max-Occlusion (ratio to baseline), FU − BL (87.5 mg daily, N 5): 0.10 ± 0.69 | Avg2Max_oc: average up to max-Occlusion/Control, FU − BL (87.5 mg daily, N 5): 0.17 ± 0.43 | Avgall_o: average all-Occlusion (ratio to baseline), FU − BL (87.5 mg daily, N 5): 0.14 ± 0.67 | Avgall_oc: average all -Occlusion/Control, FU − BL (87.5 mg daily, N 5): 0.16 ± 0.36 | Framingham RHI, FU − BL (87.5 mg daily, N 5): 0.04 ± 0.36 | Reactive Hyperemia Index, FU − BL (87.5 mg daily, N 5): 0.12 ± 0.34 | Natural Log of Reactive Hyperemia Index, Baseline measurement (87.5 mg daily): 0.41 ± 0.25 | Natural Log of Reactive Hyperemia Index, Follow-up measurement (87.5 mg daily): 0.45 ± 0.31 | Natural Log of Reactive Hyperemia Index, Difference, FU − BL (87.5 mg twice daily): −0.03 ± 0.20 | AUC2max_o: Area under the curve to Max-Occlusion (ratio to baseline), FU − BL (87.5 mg twice daily, N 4): −0.51 ± 1.64 | AUC2max_oc: Area under the curve to Max-Occlusion/Control, FU − BL (87.5 mg twice daily, N 4): 0.16 ± 1.08 | AUCall_o: Area under the curve all-Occlusion (ratio to baseline), FU − BL (87.5 mg twice daily, N 4): 0.60 ± 2.95 | AUCall_oc: Area under the curve all-Occlusion/Control, FU − BL (87.5 mg twice daily, N 4): 0.17 ± 4.30 | Avg2Max_o: average upto max-Occlusion (ratio to baseline), FU − BL (87.5 mg twice daily, N 4): 0.03 ± 0.36 | Avg2Max_oc: average up to max-Occlusion/Control, FU − BL (87.5 mg twice daily, N 4): 0.24 ± 0.23 | Avgall_o: average all-Occlusion (ratio to baseline), FU − BL (87.5 mg twice daily, N 4): 0.09 ± 0.33 | Avgall_oc: average all -Occlusion/Control, FU − BL (87.5 mg twice daily, N 4): 0.05 ± 0.45 | Framingham RHI, FU − BL (87.5 mg twice daily, N 4): 0.00 ± 0.20 | Reactive Hyperemia Index, FU − BL (87.5 mg twice daily, N 4): 0.01 ± 0.38 | Natural Log of Reactive Hyperemia Index, Baseline measurement (87.5 mg twice daily): 0.49 ± 0.12 | Natural Log of Reactive Hyperemia Index, Follow-up measurement (87.5 mg twice daily): 0.40 ± 0.29 | Natural Log of Reactive Hyperemia Index, Difference, FU − BL (125 mg daily): −0.10 ± 0.38 | AUC2max_o: Area under the curve to Max-Occlusion (ratio to baseline), FU − BL (125 mg daily, N 6): 0.37 ± 2.71
